One assay concerns E. faecium WC176. Briefly: organism not typed. The settings on record: WC176, 18 h. The class given is cell-based, Enterococcus faecium. The method, then: (§1) To determine the MICs of peptides, we used the broth microdilution method described by the Clinical and Laboratory Standards Institute. We made serial dilutions of 10× concentration (10 µL) for each peptide in duplicates in 96-well plates (Cat No. 3595, Corning, New York, NY, USA). We added 90 µL of logarithmic-phase bacteria at 5 × 10^5 CFU/mL (in BHI media) to the peptides and then incubated the plates at 37 °C for 18 h. We measured the OD600 absorbance readings using the Spectra Max i3x spectrophotometer (Molecular Devices, San Jose, CA, USA) and determined the MIC as the peptide concentration that inhibits the growth of bacteria.

Another assay relates to S. aureus MW2. As to the kind of experiment: microbe, parasite or virus in culture. Type of assay: cell-based, Staphylococcus aureus. The settings on record: MW2, 18 h. The method, then: as §1
Another assay relates to E. faecalis MMH594. As to the kind of experiment: microbe, parasite or virus in culture. The settings on record: MMH594, 18 h. Type of assay: cell-based. The method, then:
as §1

Another assay deals with E. faecalis V583. As to the kind of experiment: microbe, parasite or virus in culture. The class given is cell-based. The settings on record: V583, 18 h. The protocol:
as §1

The test system of assay [1] is E. faecium C68 biofilm formation. Briefly: Prevention of E. faecium biofilm formation (XTT, crystal violet). The class given is cell-based, Enterococcus faecium. The settings on record: for biomass depleted / biofilm formation inhibited: at 32 µg/mL, biofilm formation stage. The method, then: We evaluated the ability of the lactoferrin-derived peptides to inhibit biofilm formation following an established protocol with modifications. In short, we prepared exponential cultures of E. faecium C68 (adjusted to OD600 = 0.01) in BHI media (supplemented with 0.2% glucose) from overnight grown cultures. We added 90 µL of the bacterial culture to 10 µL of serially diluted 10× peptide solution in flat-bottomed 96-well polystyrene microtiter plates (Cat No. 3595, Corning, NY, USA) and then incubated the plates at 37 °C for 24 h. We considered media containing bacteria and water as the positive control, while media with water served as the negative control. After incubation, we carefully pipetted out the media and washed the wells with PBS (Gibco, Waltham, MA, USA) to remove loosely attached planktonic cells. We quantified the biomass by staining the biofilms with crystal violet following an established protocol and quantitated the concentration of peptide that inhibits 50% of biofilm formation (MBIC50). Furthermore, we measured the live cell count of the biofilms using XTT [2,3-bis(2-methyloxy-4-nitro-5-sulfophenyl)-2H-tertazolium-5-carboxanilide] dye (ATCC, Manassas, VA, USA). We calculated the percentage of biofilm growth by assuming that there was 100% biofilm growth in wells with bacteria without peptide treatment.

For assay [2], the system named is E. faecium strain C68 persister cells. Briefly: Persister cell time-kill assay. The class given is cell-based, Enterococcus faecium. The method, then: (§2) For the generation of antibiotic-induced persister cells, we followed an established protocol. In brief, 25 mL of E. faecium strain C68 culture was grown to the stationary phase and then treated with gentamicin at 400 μg/mL for 5 h. We then disposed of the antibiotic-containing media and regrew the bacteria for another 18 h in fresh media. To produce stable persister cells, we repeated the cycle of antibiotic exposure and regrowth five times. The bacteria culture was then washed with the same volume of phosphate-buffered saline (PBS) 3× times and adjusted to 1 × 10^7 CFU/mL in PBS. For killing kinetics of the persister cells, we added 1 mL of the cell suspension to the wells of a 2 mL deep well assay block (Cat No. 3960, Corning, NY, USA) containing 10× MICs of 5L and 6L and incubated them at 37 °C, with shaking at 225 rpm. At specific times (0, 15, 30, 60, and 120 min), we collected 20 μL samples, diluted them serially, and then plated them on tryptic soy agar (TSA) (BD Difco, Franklin Lakes, NJ, USA) plates for 18 h at 37 °C for colony counting. We performed the experiments in duplicate. As a comparison, we prepared the exponential cells of E. faecium strain C68 in PBS and analyzed their killing kinetics in the same manner as described for persister cells.

Assay [3] concerns E. faecium strain C68 exponential cells. Briefly: Exponential cell time-kill assay. The settings on record: 10× MIC, PBS. The class given is cell-based, Enterococcus faecium. The method, then:
as §2

In another assay the test system is E. faecium strain C68. Briefly: ATP release assay (luciferase). The class given is cell-based, Enterococcus faecium. The settings on record: 32 µg/mL, 37 °C, 30 min. The protocol:
To determine the ATP leakage potential of the peptides, we employed a luciferase-based assay detailed in [32]. In brief, we washed the exponential phase of E. faecium strain C68 bacteria three times with PBS (pH 7.4) and adjusted it to OD600 = 0.4 in PBS. Following treatment of the bacteria with 32 µg/mL of 5L and 6L peptides at 37 °C for 30 min, we centrifuged the cells at 14,000 rpm for 5 min. We transferred 50 µL of the supernatant of each sample to each well of black, clear-bottom, 96-well plates (Cat No. 3904, Corning, New York, NY, USA) containing 50 µL of BacTiter-Glo reagent (Promega, Madison, WI, USA) and measured plate luminescence after 5 min of incubation at room temperature in the dark with a SpectraMax i3x reader (Molecular Devices, San Jose, CA, USA).

Assay [4] deals with E. faecium strain C68 established biofilms. Briefly: Confocal microscopy of peptide-treated established biofilms (LIVE/DEAD). The settings on record: 10× MIC, 24 h established biofilms, 24 h treatment. The class given is cell-based, Enterococcus faecium. The protocol: We prepared exponential cultures of E. faecium strain C68 (adjusted to 1 × 10^6 CFU/mL) in BHI media (supplemented with 0.2% glucose) from overnight grown cultures. To establish biofilms, we added 1 mL of the bacterial culture to the chambers of cuvettes (borosilicate cover glass, Nunc Cat. No. 155380) and maintained them at 37 °C for 24 h under static conditions. We carefully removed the media from the wells after incubation and then washed the wells with PBS (Gibco, MD, USA) to remove loosely attached planktonic cells. We treated the established biofilms in each well with 100 µL of serially diluted 10× MIC peptide solution (5L and 6L) followed by the addition of 900 μL of BHI media (supplemented with 0.2% glucose) and incubated the cuvettes for an additional 24 h at 37 °C. After incubation, we washed the cuvettes carefully with PBS (Gibco, MD, USA) to remove the planktonic cells and stained the biofilms with 10 µL of LIVE/DEAD kit (Molecular Probes, Life Technologies, Eugene, OR, USA) according to the manufacturer’s instructions. Finally, we visualized the biofilms using a confocal microscope (Zeiss 880) and processed the data via Zen 2010 software (Carl Zeiss, Jena, Germany).

“And” between values parts separate entries of the source, which are not always exact repeats. Equal values may be shown once. No end group written: not given here.

In the case of RRWLWLRRWLWR-NH2 [Peptide 5L], the “MIC WC176” value against E. faecium WC176 is 8 µg/mL. In the assay on S. aureus MW2, the “MIC S. aureus MW2” value is more than 32 µg/mL. Also, the “MIC E. faecalis MMH594” value with E. faecalis MMH594 is more than 32 µg/mL. In addition, in the assay with E. faecalis V583, the “MIC E. faecalis V583” value is more than 32 µg/mL. Besides, the “biomass depleted / biofilm formation inhibited” value in assay [1] is 90%. For the same substance, the “reduction of viable persister cells” value in assay [2] (10× MIC (40 µg/mL), 1 × 10^7 CFU, PBS, within 120 min) came to 3 logs. Further, the “time to eliminate all 10^7 CFU of exponential cells” value in assay [3] worked out at 120 min. Besides, the “ATP leakage (luminescence)” value in the assay with E. faecium strain C68 was “increased luminescence levels”. Further, the “killing of bacteria inside biofilms (confocal, LIVE/DEAD)” value in assay [4] is on record as “killed most of the bacteria inside the biofilms”.

As to RRWLWRLRWLWR-NH2 [Peptide 6L], the “MIC WC176” value with E. faecium WC176 worked out at 8 µg/mL. Also, in the assay on S. aureus MW2, the “MIC S. aureus MW2” value came to 32 µg/mL. Further, the “MIC E. faecalis MMH594” value in the assay on E. faecalis MMH594 is more than 32 µg/mL. Further, the “MIC E. faecalis V583” value against E. faecalis V583 was more than 32 µg/mL. Further, in assay [1] (XTT, 24 h, BHI + 0.2% glucose), the “concentration killing 50% of live bacterial cells during biofilm formation stage” value is reported as 1.2 µg/mL. For the same substance, in assay [1], the “biomass depleted / biofilm formation inhibited” value was 90% and 92%. Also, in assay [2] (40 µg/mL, 1 × 10^7 persister cells), the “time to eliminate all persister cells” value is reported as not above 60 min. For the same substance, the “time to eliminate all 10^7 CFU of exponential cells” value in [3] was 60 min. The “ATP leakage (luminescence)” value in the assay with E. faecium strain C68 is “increased luminescence levels”. Also, the “killing of bacteria inside biofilms (confocal, LIVE/DEAD)” value in assay [4] is on record as “killed most of the bacteria inside the biofilms”.

The values above are taken from article PMC9404989, “Design and Evaluation of Short Bovine Lactoferrin-Derived Antimicrobial Peptides against Multidrug-Resistant Enterococcus faecium” (Antibiotics, 2022).
